From patent US8557847B2, “Synergistic modulation of FLT3 kinase using a FLT3 inhibitor and a farnesyl transferase inhibitor” (Janssen Pharmaceutica, N.V., priority 2005, dated 2013)
Where a name gives a salt, the structure may show the parent alone. Read-outs that look alike come from different tables or passages of the source.

Tests used:
[1] = system: Baf3-FLT3 cells stimulated with FLT ligand; experiment: 72-hour cell proliferation assay, single agents and FTI/FLT3 inhibitor combinations, Baf3-FLT3; format: cell-based, murine; details: with single sub-IC50 dose of FLT3 inhibitor Compound A (100 nM)
Procedure: (§1) Dose responses for the individual compounds alone were determined for each cell line using a standard 72-hour cell proliferation assay (see FIGS. 6.1-6.8). The standard chemotherapeutic agent Cytarabine was used as a control cytotoxic agent in all experiments. […] The FLT3 inhibitors, Compounds A, B, C, D, E, F G and H, individually have good potency (sub-micromolar) for the inhibition of FLT3 driven proliferation (compared to the first line cytotoxic agent Cytarabine and Tipifarnib) in cells that depend on FLT3 for growth. Each of these chemically distinct compounds alone has potential for the treatment of disorders related to FLT3, such as FLT3 positive AML. […]
(§2) To statistically evaluate the synergy of a FLT3 inhibitor and an FTI in FLT3 dependent cell lines, dosing combinations were evaluated by the method of Chou and Talalay. See Chou T C, Talalay P. (1984) “Quantitative analysis of dose-effect relationships: the combined effects of multiple drugs or enzyme inhibitors.” Adv Enzyme Regul. […] Using this method, multiple FTI and FLT3 combinations were evaluated. […]
(§3) Cell proliferation assay for MV4-11, Baf3-ITD, Baf3-FLT3 and THP-1 cells. […] Total cell growth is quantified as the difference in luminescent counts (relative light units, RLU) of cell number at Day 0 compared to total cell number at Day 3 (72 hours of growth and/or compound treatment). […]

[2] = target: T1, isolated kinase domain of the human FLT3 receptor (a.a. 571-993) (Homo sapiens, UniProt P36888); experiment: FLT3 fluorescence polarization kinase assay; format: biochemical; details: 150 uM ATP; uncertainty ±10%; read-out: Flt-3 IC50
T1 construct: human FLT3 receptor (a.a. 571-993)
T1 sequence (P36888 571-993): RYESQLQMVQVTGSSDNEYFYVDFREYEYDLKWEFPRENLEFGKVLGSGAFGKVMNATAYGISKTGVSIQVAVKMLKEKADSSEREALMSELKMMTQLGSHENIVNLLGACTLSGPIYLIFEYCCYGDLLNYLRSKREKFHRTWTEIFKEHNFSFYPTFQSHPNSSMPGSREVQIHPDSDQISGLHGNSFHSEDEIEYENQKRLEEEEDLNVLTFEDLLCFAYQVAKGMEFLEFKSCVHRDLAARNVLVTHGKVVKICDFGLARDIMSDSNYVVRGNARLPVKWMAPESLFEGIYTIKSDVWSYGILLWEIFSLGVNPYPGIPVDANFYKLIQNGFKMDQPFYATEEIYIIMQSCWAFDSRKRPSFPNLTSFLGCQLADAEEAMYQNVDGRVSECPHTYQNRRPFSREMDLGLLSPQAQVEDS
From the text: The FLT3 FP assay utilizes the fluorescein-labeled phosphopeptide and the anti-phosphotyrosine antibody included in the Panvera Phospho-Tyrosine Kinase Kit (Green) supplied by Invitrogen. When FLT3 phosphorylates polyGlu4Tyr, the fluorescein-labeled phosphopeptide is displaced from the anti-phosphotyrosine antibody by the phosphorylated poly Glu4Tyr, thus decreasing the FP value. […] The kinase reaction is stopped with the addition of EDTA. The fluorescein-labeled phosphopeptide and the anti-phosphotyrosine antibody are added and incubated for 30 minutes at room temperature.
Data points are an average of triplicate samples. Inhibition and IC50 data analysis was done with GraphPad Prism using a non-linear regression fit with a multiparamater, sigmoidal dose-response (variable slope) equation.

[3] = target: T2, wild-type FLT3 phosphorylation in Baf3 FLT3 cells (Homo sapiens, UniProt P36888); experiment: Cell-based FLT3 receptor ELISA; details: uncertainty ±20%
T2 construct: host or cells: Baf3 (murine B cell lymphoma line)
T2 sequence (P36888 27-993): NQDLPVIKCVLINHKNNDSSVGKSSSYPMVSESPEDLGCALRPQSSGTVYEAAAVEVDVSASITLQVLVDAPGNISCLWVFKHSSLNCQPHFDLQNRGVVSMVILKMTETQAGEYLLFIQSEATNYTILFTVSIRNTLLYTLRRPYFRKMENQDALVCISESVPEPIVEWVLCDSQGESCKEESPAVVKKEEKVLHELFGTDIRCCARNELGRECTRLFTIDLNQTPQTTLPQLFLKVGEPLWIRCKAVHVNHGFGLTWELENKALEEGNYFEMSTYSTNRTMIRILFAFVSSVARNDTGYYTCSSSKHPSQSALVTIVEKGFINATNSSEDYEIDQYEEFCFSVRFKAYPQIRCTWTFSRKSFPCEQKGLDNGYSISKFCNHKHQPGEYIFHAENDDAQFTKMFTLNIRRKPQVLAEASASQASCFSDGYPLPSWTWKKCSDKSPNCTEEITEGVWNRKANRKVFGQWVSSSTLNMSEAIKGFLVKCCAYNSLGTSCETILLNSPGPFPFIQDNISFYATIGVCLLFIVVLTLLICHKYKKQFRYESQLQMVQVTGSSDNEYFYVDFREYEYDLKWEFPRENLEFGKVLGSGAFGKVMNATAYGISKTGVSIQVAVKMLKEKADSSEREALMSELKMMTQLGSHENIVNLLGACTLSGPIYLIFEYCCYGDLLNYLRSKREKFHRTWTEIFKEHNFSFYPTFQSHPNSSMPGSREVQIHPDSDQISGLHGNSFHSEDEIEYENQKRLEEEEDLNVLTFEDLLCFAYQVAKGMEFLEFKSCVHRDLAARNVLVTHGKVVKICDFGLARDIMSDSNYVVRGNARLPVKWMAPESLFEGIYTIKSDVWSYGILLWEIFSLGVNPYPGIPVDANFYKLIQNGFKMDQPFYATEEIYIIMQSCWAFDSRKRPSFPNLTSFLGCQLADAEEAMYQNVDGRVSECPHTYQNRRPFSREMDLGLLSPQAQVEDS
From the text: Data points are an average of triplicate samples. […] Leukemia.

[4] = system: MV4-11 AML cells; experiment: 72-hour cell proliferation assay, single agents and FTI/FLT3 inhibitor combinations, MV4-11; format: cell-based; details: Homo sapiens, IC50 of the FLT3 inhibitor, alone or within the labelled combination, average of three experiments
Procedure: as §1, §2, §3

[5] = system: MV-4-11 tumor xenografts; experiment: MV-4-11 tumor xenografts, FLT3 inhibitor Compound D administered with Tipifarnib; format: in vivo, nude mice; details: Compound D 25 mg/kg bid oral, Day 16
From the text: The starting mean tumor volume for each treatment group was approximately 250 mm3.
Dosing was continued for sixteen consecutive days.

[6] = target: T3, FLT3 phosphorylation in MV4-11 tumors (Homo sapiens, UniProt P36888, INS600HVDFREYEYD); experiment: FLT3 phosphorylation in MV4-11 tumors, Compound D; format: in vivo, nude mice; details: tumors harvested 6 hours later
T3 construct: host or cells: MV4-11 human AML cells (in culture, or as xenograft tumors in nude mice)
T3 sequence (P36888 with tags, fused parts or gaps INS600HVDFREYEYD): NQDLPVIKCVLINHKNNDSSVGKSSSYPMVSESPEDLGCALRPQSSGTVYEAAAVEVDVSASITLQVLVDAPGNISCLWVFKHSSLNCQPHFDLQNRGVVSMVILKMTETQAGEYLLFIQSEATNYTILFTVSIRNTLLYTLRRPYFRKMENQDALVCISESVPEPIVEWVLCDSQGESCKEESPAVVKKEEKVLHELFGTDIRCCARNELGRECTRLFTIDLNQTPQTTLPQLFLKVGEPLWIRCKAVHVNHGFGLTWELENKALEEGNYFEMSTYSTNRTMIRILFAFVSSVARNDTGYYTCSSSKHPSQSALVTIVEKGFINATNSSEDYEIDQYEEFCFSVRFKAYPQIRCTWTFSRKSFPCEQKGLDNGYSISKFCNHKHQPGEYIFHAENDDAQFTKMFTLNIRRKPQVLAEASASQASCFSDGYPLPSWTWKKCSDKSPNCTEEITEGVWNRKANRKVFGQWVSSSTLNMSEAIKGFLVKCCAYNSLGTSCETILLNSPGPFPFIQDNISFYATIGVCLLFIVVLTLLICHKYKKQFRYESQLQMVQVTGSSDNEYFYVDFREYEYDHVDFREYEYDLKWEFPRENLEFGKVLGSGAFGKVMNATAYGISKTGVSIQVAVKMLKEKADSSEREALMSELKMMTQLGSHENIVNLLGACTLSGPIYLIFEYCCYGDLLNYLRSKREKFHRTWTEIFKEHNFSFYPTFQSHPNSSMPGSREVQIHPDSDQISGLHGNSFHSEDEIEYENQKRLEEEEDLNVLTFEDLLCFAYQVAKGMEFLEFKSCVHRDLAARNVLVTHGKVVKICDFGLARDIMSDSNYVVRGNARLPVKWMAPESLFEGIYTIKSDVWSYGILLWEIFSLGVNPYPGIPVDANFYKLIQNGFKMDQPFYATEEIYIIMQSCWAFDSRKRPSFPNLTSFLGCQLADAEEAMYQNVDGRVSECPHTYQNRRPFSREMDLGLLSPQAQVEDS
Procedure: Tumors were harvested 6 hours later and snap frozen for assessment of FLT3 phosphorylation by western blots.
Harvested tumors were frozen and processed for immunoblot analysis of FLT3 phosphorylation in the following manner: 200 mg of tumor tissue was dounce homogenized in lysis buffer (50 mM Hepes, 150 mM NaCl, 10% Glycerol, 1% Triton —X-100, 10 mM NaF, 1 mM EDTA, 1.5 mM MgCl2, 10 mM NaPyrophosphate) supplemented with phosphatase (Sigma Cat# P2850) and protease inhibitors (Sigma Cat #P8340). Insoluble debris was removed by centrifugation at 1000×g for 5 minutes at 4° C.
Immunoprecipitated FLT3 from tumor lysates were then washed four times with lysis buffer and separated by SDS-PAGE. […] Blots were then stripped and reprobed with anti-FLT3 antibody for normalization of phosphorylation signals.

[7] = system: MV4-11 tumor xenografts; details: for inhibition of mean tumor volume compared to vehicle-treated group: Day 11

With `Cn1cncc1[C@@](N)(c1ccc(Cl)cc1)c1ccc2c(c1)c(-c1cccc(Cl)c1)cc(=O)n2C` (single isomer, unassigned) [Tipifarnib, reference compound] as the compound, how does the “increase in potency of Tipifarnib” value [1] read?
Its value is “more than 3 fold”.

How did the IC50 [2] turn out when `N#Cc1c[nH]c(C(=O)Nc2ccc(C3CCNCC3)cc2C2=CCCCC2)n1` [Compound 14, 4-Cyano-1H-imidazole-2-carboxylic acid (2-cyclohex-1-enyl-4-piperidin-4-yl-phenyl)-amide trifluoroacetic acid salt] was run?
The IC50 was 32 nM.

And the IC50 [3]?
The IC50 was 770 nM.

What does the source list for `CN(C)CC(=O)N1CCC(c2ccc(NC(=O)c3nc(C#N)c[nH]3)c(C3=CCCCC3)c2)CC1` [Compound 38, 4-Cyano-1H-imidazole-2-carboxylic acid {2-cyclohex-1-enyl-4-[1-(2-dimethylamino-acetyl)-piperidin-4-yl]-phenyl}-amide]?
IC50 [4]: 13.8 nM; inhibition of tumor volume compared to vehicle-treated control group [5]: 76%; level of FLT3 phosphorylation in MV4-11 tumors ([6]; single dose 10 mg/kg po): partial reduction; level of FLT3 phosphorylation in MV4-11 tumors ([6]; single dose 100 mg/kg po): biologically significant reduction; tumor growth compared to vehicle-treated control group ([7]; 10 mg/kg b.i.d. oral): no significant growth delay; final tumor weight ([7]; 10 mg/kg dose): no significant decrease; tumor regression, decrease versus starting mean tumor volume on Day 1 ([7]; 50 mg/kg b.i.d. oral): 98%; inhibition of mean tumor volume compared to vehicle-treated group ([7]; 50 mg/kg b.i.d. oral): ~100%; final tumor weight ([7]; 50 mg/kg dose): no measurable tumor mass detectable; tumor regression, decrease versus starting mean tumor volume on Day 1 ([7]; 100 mg/kg b.i.d. oral): 93%; inhibition of mean tumor volume compared to vehicle-treated group ([7]; 100 mg/kg b.i.d. oral): ~100%; mice with palpable, measurable tumor on study day 34 ([7]; 100 mg/kg, dosing stopped on Day 12, tumor allowed to re-grow): 6/12; body weight compared to starting body weight ([7]; across all dose groups): no significant loss of body weight
